{"source": "PubChem BioAssay (NCI)", "test_in_all_cases": "NCI-60 cell line screen, 384-well format", "key": {"CAKI-1 renal": {"system": "CAKI-1 renal"}, "OVCAR-5 ovarian": {"system": "OVCAR-5 ovarian"}, "MDA-MB-435 melanoma": {"system": "MDA-MB-435 melanoma"}, "COLO 205 colon": {"system": "COLO 205 colon"}, "CCRF-CEM leukemia": {"system": "CCRF-CEM leukemia"}, "RXF 393 renal": {"system": "RXF 393 renal"}, "SF-268 CNS": {"system": "SF-268 CNS"}, "M14 melanoma": {"system": "M14 melanoma"}, "HOP-62 NSCLC": {"system": "HOP-62 NSCLC"}, "SR leukemia": {"system": "SR leukemia"}, "HCT-15 colon": {"system": "HCT-15 colon"}, "SNB-19 CNS": {"system": "SNB-19 CNS"}, "HCC-2998 colon": {"system": "HCC-2998 colon"}}, "note": "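At the GI50, growth is halved. TGI: total growth inhibition.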", "data": [{"smiles": "CC[C@H](NC(=O)[C@H](CS(=O)(=O)CC1CC1)N[C@@H](c1ccc(F)cc1)C(F)(F)F)C(=O)C(=O)NC1CC1", "values": [{"measurement": "GI50", "setting": "CAKI-1 renal", "result": "> 100", "unit": "µM"}, {"measurement": "TGI", "setting": "CAKI-1 renal", "result": "> 100", "unit": "µM"}, {"measurement": "GI50", "setting": "OVCAR-5 ovarian", "result": "> 100", "unit": "µM"}, {"measurement": "TGI", "setting": "OVCAR-5 ovarian", "result": "> 100", "unit": "µM"}, {"measurement": "GI50", "setting": "MDA-MB-435 melanoma", "result": "> 100", "unit": "µM"}, {"measurement": "TGI", "setting": "MDA-MB-435 melanoma", "result": "> 100", "unit": "µM"}, {"measurement": "GI50", "setting": "COLO 205 colon", "result": "> 100", "unit": "µM"}, {"measurement": "TGI", "setting": "COLO 205 colon", "result": "> 100", "unit": "µM"}, {"measurement": "GI50", "setting": "CCRF-CEM leukemia", "result": 60.9, "unit": "µM"}, {"measurement": "TGI", "setting": "CCRF-CEM leukemia", "result": "> 100", "unit": "µM"}, {"measurement": "GI50", "setting": "RXF 393 renal", "result": "> 88.2", "unit": "µM"}, {"measurement": "TGI", "setting": "RXF 393 renal", "result": "> 100", "unit": "µM"}, {"measurement": "GI50", "setting": "SF-268 CNS", "result": "> 51.4", "unit": "µM"}, {"measurement": "TGI", "setting": "SF-268 CNS", "result": "> 93.9", "unit": "µM"}, {"measurement": "GI50", "setting": "M14 melanoma", "result": "> 100", "unit": "µM"}, {"measurement": "TGI", "setting": "M14 melanoma", "result": "> 100", "unit": "µM"}, {"measurement": "GI50", "setting": "HOP-62 NSCLC", "result": 98.8, "unit": "µM"}, {"measurement": "TGI", "setting": "HOP-62 NSCLC", "result": "> 100", "unit": "µM"}, {"measurement": "GI50", "setting": "SR leukemia", "result": 19.3, "unit": "µM"}, {"measurement": "TGI", "setting": "SR leukemia", "result": 74.5, "unit": "µM"}, {"measurement": "GI50", "setting": "HCT-15 colon", "result": "> 100", "unit": "µM"}, {"measurement": "TGI", "setting": "HCT-15 colon", "result": "> 100", "unit": "µM"}, {"measurement": "GI50", "setting": "SNB-19 CNS", "result": "> 100", "unit": "µM"}, {"measurement": "TGI", "setting": "SNB-19 CNS", "result": "> 100", "unit": "µM"}, {"measurement": "GI50", "setting": "HCC-2998 colon", "result": "> 100", "unit": "µM"}, {"measurement": "TGI", "setting": "HCC-2998 colon", "result": "> 100", "unit": "µM"}]}]}
